Test results reported in PubChem BioAssay (NCI).
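48-hour exposure; five concentrations; linearly interpolated endpoints. GI50 = concentration required for 50% inhibition of growth. TGI is the concentration that stops growth completely.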 *1 amine or outer side, *2 acyl side, *3 side chain or, on linkers, in order; H or OH if unused. Where a SMILES comes first, the peptide text is derived from it. Bridges are numbered along the chain shown (N, C = ends). [ ]: non-standard residue; d: D form. The star is where a group is joined. Phe(3,5-F2) = N[C@@H](Cc1cc(F)cc(F)c1)C(=O)O; Pro(4R-Me) = C[C@H]1CN[C@H](C(=O)O)C1; aThr = C[C@H](O)[C@H](N)C(=O)O; Pip = O=C(O)[C@@H]1CCCCN1; X10 = Fc1cc(C2CC2)ccc1N*; CO = O=C([*:1])[*:2]

Columns and labels:
Test in all cases: inhibition of tumour cell growth, NCI panel, 48 h
[1] = test system: CCRF-CEM leukemia
[2] = test system: DU-145 prostate
[3] = test system: HOP-62 NSCLC
[4] = test system: IGROV1 ovarian
[5] = test system: KM12 colon
[6] = test system: M14 melanoma
[7] = test system: OVCAR-4 ovarian
[8] = test system: SK-MEL-2 melanoma
[9] = test system: SK-MEL-28 melanoma
[10] = test system: UACC-257 melanoma

Row | SMILES | GI50 [1] | TGI [1] | GI50 [2] | TGI [2] | GI50 [3] | TGI [3] | GI50 [4] | TGI [4] | GI50 [5] | TGI [5] | GI50 [6] | TGI [6] | GI50 [7] | TGI [7] | GI50 [8] | TGI [8] | GI50 [9] | TGI [9] | GI50 [10] | TGI [10]
1 | Cc1nc2sccn2c1-c1csc(Nc2ccccc2Cl)n1 | 3.32 µM | 53.2 µM | 7.87 µM | 68.8 µM | 4.75 µM | 70.5 µM | 5.45 µM | 50 µM | 2.61 µM | 24.5 µM | 3.38 µM | 18 µM | 2.35 µM | 83.5 µM | 3.83 µM | 17.9 µM | 6.24 µM | > 100 µM | 3.69 µM | 17.9 µM
2 | Cc1cc(-c2nc(C(=O)Nc3cc4oc(N5CCOCC5)nc4nc3N3CC[C@@H](O)C3)co2)ccn1 | 29.4 µM | > 100 µM | 46.9 µM | > 100 µM | 30.6 µM | > 100 µM | 12.7 µM | 72.7 µM | 3.46 µM | > 100 µM | 35.9 µM | > 100 µM | 32.1 µM | > 100 µM | 23 µM | 99.8 µM | 56.2 µM | > 100 µM | 88.8 µM | > 100 µM
3 | O=C(Nc1ccc(-n2ccc3c(NC(=O)c4ccccc4)nccc32)cc1)c1ccc(Cl)c(C(F)(F)F)c1 | 0.128 µM | 2.17 µM | 2.12 µM | 10.7 µM | 3.4 µM | 13.2 µM | 1.55 µM | 15.3 µM | 0.351 µM | 6.26 µM | 1.92 µM | 10.7 µM | 1.61 µM | 8.55 µM | 6.16 µM | 31.6 µM | 4.99 µM | 14.1 µM | 6.73 µM | 27.2 µM
4 | Cc1cnc(NCCCN(C)C)c2c1[nH]c1ccc3cc(O)ccc3c12 | – | 5.88 µM | – | 4.03 µM | – | 1.86 µM | – | 4.6 µM | – | 10 µM | – | 2.55 µM | – | 1.19 µM | – | 2.47 µM | – | 2.86 µM | – | 11.5 µM
5 | Cc1ccnc2c1ccc1c(C)ccnc12 | 0.361 µM | 3 µM | 0.501 µM | 14.2 µM | 0.508 µM | 12.6 µM | 0.471 µM | 13.6 µM | 0.504 µM | 12 µM | 0.294 µM | 10.2 µM | 0.316 µM | 4.23 µM | 0.504 µM | 18.3 µM | 0.491 µM | 14.2 µM | 0.508 µM | 7.6 µM
6 | COc1ccc2c(c1)sc1nc(-c3ccccc3)c(-c3cccc4ccccc34)n12 | 0.45 µM | > 100 µM | 0.767 µM | > 31.9 µM | 0.538 µM | – | 2.07 µM | > 100 µM | 0.429 µM | > 34.7 µM | 0.475 µM | > 100 µM | 2.87 µM | > 100 µM | 1.67 µM | > 100 µM | 0.417 µM | > 100 µM | 0.532 µM | > 100 µM
7 | C[C@@H]1C[C@H]2C(=O)O[C@@H](C)[C@H](NC(=O)[C@H](Cc3cc(F)cc(F)c3)NC(=O)Nc3ccc(C4CC4)cc3F)C(=O)N3CCC[C@H]3C(=O)N3CCCC[C@H]3C(=O)N[C@@H](C)C(=O)N2C1 ({X10-CO}-[Phe(3,5-F2)][aThr]P[Pip]A[Pro(4R-Me)]; ester 2-C) | 0.0522 µM | > 100 µM | 0.053 µM | > 56.9 µM | 0.0542 µM | > 48.2 µM | 0.149 µM | 18.5 µM | 0.0909 µM | 10.3 µM | 0.0436 µM | 2.41 µM | 0.033 µM | 3.84 µM | 0.0549 µM | 3.83 µM | 0.0781 µM | 4.99 µM | 0.0413 µM | 10.7 µM
8 | NS(=O)(=O)OC[C@@H]1C[C@@H](n2ccc3c(NC4CCc5ccccc54)ncnc32)C[C@@H]1O (some centres undefined) | 0.324 µM | 55.9 µM | 0.384 µM | > 100 µM | 3.23 µM | > 46.9 µM | 7.83 µM | > 100 µM | 1.13 µM | 49.1 µM | 0.712 µM | > 100 µM | 15.7 µM | > 100 µM | 0.74 µM | 21 µM | 3.94 µM | > 100 µM | 1.02 µM | > 90.7 µM
9 | Fc1[nH]nc2ccc([C@@H]3Nc4ccc5[nH]ncc5c4[C@H]4C5CCC(C5)[C@@H]34)cc12 (some centres undefined) | 0.514 µM | 16.5 µM | 3.22 µM | 14.9 µM | 0.747 µM | 13.8 µM | 0.86 µM | 16 µM | 0.559 µM | 11.5 µM | 0.514 µM | 11.7 µM | 4.51 µM | 17.8 µM | 0.913 µM | 12.2 µM | 1.54 µM | 16.2 µM | 10.4 µM | 23.9 µM
10 | CCN(CC)N=Nc1c(C(N)=O)n[nH]c1C | – | 54.5 µM | – | > 100 µM | – | > 100 µM | – | > 100 µM | – | > 100 µM | – | > 100 µM | – | > 100 µM | – | > 100 µM | – | > 100 µM | – | > 100 µM
11 | Cc1ccc(Cl)c2c(N=Nc3ccccc3[N+](=O)[O-])c(O)[nH]c12 | – | > 100 µM | – | > 100 µM | – | > 100 µM | – | > 100 µM | – | > 100 µM | – | > 100 µM | – | > 100 µM | – | > 100 µM | – | > 100 µM | – | > 100 µM
12 | Nc1c(C(=O)c2cccc(CCS(N)(=O)=O)c2)cnn1-c1ccc(F)cc1 | > 25 µM | > 25 µM | > 25 µM | > 25 µM | > 25 µM | > 25 µM | > 25 µM | > 25 µM | > 25 µM | > 25 µM | > 25 µM | > 25 µM | > 25 µM | > 25 µM | > 25 µM | > 25 µM | > 25 µM | > 25 µM | > 25 µM | > 25 µM
